Experiment: Preservation of bioactivity of solubilized tissue constituents under ultrasonic energy exposure
Conditions: 1% w/v in LPM

Structure (SMILES) | preservation of bioactivity of solubilized proteins and nucleic acids
CCCCCCCCCCCCOCCOCCOCCOCCO [Brij 30, polyethylene glycol dodecyl ether] | complete preservation
CCCCCCCCCC[N+](C)(C)CCCS(=O)(=O)[O-] [DPS, 3-(decyldimethylammonio) propane sulfonate] | complete preservation
CCCCCCCCCCCC(=O)N(C)CC(=O)O [NLS, N-lauroyl sarcosine] | complete preservation

From patent US9328324B2, “System, method and devices for tissue-based diagnosis” (The Regents of the University of California, priority 2009, dated 2016)
